Test results: patent publication US20090191636A1, “Method of Producing Transgenic Graminaceous Cells and Plants” (priority 2006, published 2009)

Legend:
[1] = tested on: wheat embryos derived from mature dried grain of the cultivar Ventura; assay: Effect of D-amino acids on regeneration of wheat from embryos of mature dried grain (Ventura); assay type: cell-based; details: n = 20
[2] = tested on: wheat mature dried grain of the cultivar Ventura; assay: Effect of D-amino acids on germination of wheat mature dried grain (Ventura); assay type: in vivo; details: n = 15
Experimental: [Worded in the source for another variant; this variant is reported under the same test.] (§1) A range of concentrations of the D-amino acids D-serine and D-alanine were tested for effects on wheat regeneration and germination from embryos derived from mature dried grain of the cultivar Bobwhite.

[3] = tested on: wheat mature dried grain of the cultivar Bobwhite; assay: Effect of D-amino acids on germination of wheat mature dried grain (Bobwhite); assay type: in vivo, Triticum aestivum; details: n = 15
Experimental: as §1

[4] = tested on: wheat embryos derived from mature dried grain of the cultivar Bobwhite; assay: Effect of D-amino acids on regeneration of wheat from embryos of mature dried grain (Bobwhite); assay type: cell-based, Triticum aestivum; details: for proportion (%) of explants regenerating after 3 weeks, Average / proportion (%) of explants regenerating after 3 weeks, Experiment number 1 / proportion (%) of explants regenerating after 3 weeks, Experiment number 2 / proportion (%) of explants regenerating after 3 weeks, Experiment number 3: n = 20
Experimental: as §1

In the case of `N[C@H](CO)C(=O)O` [D-serine], the “proportion (%) of explants regenerating after 3 weeks, Average” value (“proportion (%) … after 3 weeks, Average” below) ([1]; 0.5 mM) is reported as 10%, the “proportion (%) of explants regenerating after 3 weeks, Experiment number 1” value ([1]; 0.5 mM) is reported as 10% and the “proportion (%) of explants regenerating after 3 weeks, Experiment number 2” value ([1]; 0.5 mM) is reported as 15%. The “proportion (%) of explants regenerating after 3 weeks, Experiment number 3” value ([1]; 0.5 mM) was 5%, the “proportion (%) … after 3 weeks, Average” value ([1]; 1 mM) was 7% and the “proportion (%) of explants regenerating after 3 weeks, Experiment number 1” value ([1]; 1 mM) was 10%. For the same compound, the “proportion (%) of explants regenerating after 3 weeks, Experiment number 2” value ([1]; 1 mM) was 5%, the “proportion (%) of explants regenerating after 3 weeks, Experiment number 3” value ([1]; 1 mM) was 5% and the “proportion (%) … after 3 weeks, Average” value ([1]; 5 mM) was 5%. The “proportion (%) of explants regenerating after 3 weeks, Experiment number 1” value ([1]; 5 mM) was 5%, the “proportion (%) of explants regenerating after 3 weeks, Experiment number 2” value ([1]; 5 mM) was 5% and the “proportion (%) … after 3 weeks, Average” value ([1]; 7.5 mM) was 0%. For the same compound, the “proportion (%) of explants regenerating after 3 weeks, Experiment number 1” value ([1]; 7.5 mM) was 0%, the “proportion (%) of explants regenerating after 3 weeks, Experiment number 2” value ([1]; 7.5 mM) was 0% and the “proportion (%) of explants regenerating after 3 weeks, Experiment number 3” value ([1]; 7.5 mM) was 0%. The “proportion (%) … after 3 weeks, Average” value ([1]; 10 mM) was 0%, the “proportion (%) of explants regenerating after 3 weeks, Experiment number 1” value ([1]; 10 mM) was 0% and the “proportion (%) of explants regenerating after 3 weeks, Experiment number 2” value ([1]; 10 mM) was 0%. For the same compound, the “proportion (%) of explants regenerating after 3 weeks, Experiment number 3” value ([1]; 10 mM) was 0%, the “proportion (%) … after 3 weeks, Average” value ([1]; 30 mM) was 0% and the “proportion (%) of explants regenerating after 3 weeks, Experiment number 1” value ([1]; 30 mM) was 0%. For the same compound, the “proportion (%) of explants regenerating after 3 weeks, Experiment number 2” value ([1]; 30 mM) was 0%, the “proportion (%) of explants regenerating after 3 weeks, Experiment number 3” value ([1]; 30 mM) was 0% and the “germination: proportion (%) of explants regenerating after 1 week, Average” value (“germination: proportion (%) … Average” for short) ([2]; 0.5 mM) was 70%. For the same compound, the “germination: proportion (%) of explants regenerating after 1 week, Experiment number 1” value ([2]; 0.5 mM) was 65%, the “germination: proportion (%) of explants regenerating after 1 week, Experiment number 2” value ([2]; 0.5 mM) was 60% and the “germination: proportion (%) of explants regenerating after 1 week, Experiment number 3” value ([2]; 0.5 mM) was 85%. The “germination: proportion (%) … Average” value ([2]; 1 mM) was 68%, the “germination: proportion (%) of explants regenerating after 1 week, Experiment number 1” value ([2]; 1 mM) was 70% and the “germination: proportion (%) of explants regenerating after 1 week, Experiment number 2” value ([2]; 1 mM) was 70%. The “germination: proportion (%) of explants regenerating after 1 week, Experiment number 3” value ([2]; 1 mM) was 65%, the “germination: proportion (%) … Average” value ([2]; 5 mM) was 53% and the “germination: proportion (%) of explants regenerating after 1 week, Experiment number 1” value ([2]; 5 mM) was 60%. For the same compound, the “germination: proportion (%) of explants regenerating after 1 week, Experiment number 2” value ([2]; 5 mM) was 45%, the “germination: proportion (%) … Average” value ([2]; 7.5 mM) was 23% and the “germination: proportion (%) of explants regenerating after 1 week, Experiment number 1” value ([2]; 7.5 mM) was 15%. The “germination: proportion (%) of explants regenerating after 1 week, Experiment number 2” value ([2]; 7.5 mM) was 20%, the “germination: proportion (%) of explants regenerating after 1 week, Experiment number 3” value ([2]; 7.5 mM) was 35% and the “germination: proportion (%) … Average” value ([2]; 10 mM) was 43%. For the same compound, the “germination: proportion (%) of explants regenerating after 1 week, Experiment number 2” value ([2]; 10 mM) was 30%, the “germination: proportion (%) of explants regenerating after 1 week, Experiment number 3” value ([2]; 10 mM) was 55% and the “germination: proportion (%) … Average” value ([2]; 30 mM) was 0%. For the same compound, the “germination: proportion (%) of explants regenerating after 1 week, Experiment number 1” value ([2]; 30 mM) was 0%, the “germination: proportion (%) of explants regenerating after 1 week, Experiment number 2” value ([2]; 30 mM) was 0% and the “germination: proportion (%) of explants regenerating after 1 week, Experiment number 3” value ([2]; 30 mM) was 0%. The “proportion (%) of explants germinated after 1 week, Average” value ([3]; 0.5 mM) was 62%, the “proportion (%) of explants germinated after 1 week, Experiment Number 1” value ([3]; 0.5 mM) was 35% and the “proportion (%) of explants germinated after 1 week, Experiment Number 2” value ([3]; 0.5 mM) was 70%. For the same compound, the “proportion (%) of explants germinated after 1 week, Experiment Number 3” value ([3]; 0.5 mM) was 80%, the “proportion (%) of explants germinated after 1 week, Average” value ([3]; 1 mM) was 57% and the “proportion (%) of explants germinated after 1 week, Experiment Number 1” value ([3]; 1 mM) was 30%. For the same compound, the “proportion (%) of explants germinated after 1 week, Experiment Number 2” value ([3]; 1 mM) was 80%, the “proportion (%) of explants germinated after 1 week, Experiment Number 3” value ([3]; 1 mM) was 60% and the “proportion (%) of explants germinated after 1 week, Average” value ([3]; 5 mM) was 38%. For the same compound, the “proportion (%) of explants germinated after 1 week, Experiment Number 1” value ([3]; 5 mM) was 20%, the “proportion (%) of explants germinated after 1 week, Experiment Number 2” value ([3]; 5 mM) was 70% and the “proportion (%) of explants germinated after 1 week, Experiment Number 3” value ([3]; 5 mM) was 25%. For the same compound, the “proportion (%) of explants germinated after 1 week, Average” value ([3]; 7.5 mM) was 32%, the “proportion (%) of explants germinated after 1 week, Experiment Number 1” value ([3]; 7.5 mM) was 10% and the “proportion (%) of explants germinated after 1 week, Experiment Number 2” value ([3]; 7.5 mM) was 60%. For the same compound, the “proportion (%) of explants germinated after 1 week, Experiment Number 3” value ([3]; 7.5 mM) was 25%, the “proportion (%) of explants germinated after 1 week, Average” value ([3]; 10 mM) was 18% and the “proportion (%) of explants germinated after 1 week, Experiment Number 1” value ([3]; 10 mM) was 0%. The “proportion (%) of explants germinated after 1 week, Experiment Number 2” value ([3]; 10 mM) was 35%, the “proportion (%) of explants germinated after 1 week, Experiment Number 3” value ([3]; 10 mM) was 20% and the “proportion (%) of explants germinated after 1 week, Average” value ([3]; 30 mM) was 0%. The “proportion (%) of explants germinated after 1 week, Experiment Number 1” value ([3]; 30 mM) was 0%, the “proportion (%) of explants germinated after 1 week, Experiment Number 2” value ([3]; 30 mM) was 0% and the “proportion (%) of explants germinated after 1 week, Experiment Number 3” value ([3]; 30 mM) was 0%. For the same compound, the “proportion (%) … after 3 weeks, Average” value ([4]; 0.5 mM) was 28%, the “proportion (%) of explants regenerating after 3 weeks, Experiment number 1” value ([4]; 0.5 mM) was 45% and the “proportion (%) of explants regenerating after 3 weeks, Experiment number 2” value ([4]; 0.5 mM) was 33%. The “proportion (%) of explants regenerating after 3 weeks, Experiment number 3” value ([4]; 0.5 mM) was 5%, the “proportion (%) … after 3 weeks, Average” value ([4]; 1 mM) was 23% and the “proportion (%) of explants regenerating after 3 weeks, Experiment number 1” value ([4]; 1 mM) was 30%. The “proportion (%) of explants regenerating after 3 weeks, Experiment number 2” value ([4]; 1 mM) was 33%, the “proportion (%) of explants regenerating after 3 weeks, Experiment number 3” value ([4]; 1 mM) was 5% and the “proportion (%) … after 3 weeks, Average” value ([4]; 5 mM) was 8%. The “proportion (%) of explants regenerating after 3 weeks, Experiment number 1” value ([4]; 5 mM) was 10%, the “proportion (%) of explants regenerating after 3 weeks, Experiment number 2” value ([4]; 5 mM) was 10% and the “proportion (%) of explants regenerating after 3 weeks, Experiment number 3” value ([4]; 5 mM) was 5%. The “proportion (%) … after 3 weeks, Average” value ([4]; 7.5 mM) was 3%, the “proportion (%) of explants regenerating after 3 weeks, Experiment number 1” value ([4]; 7.5 mM) was 0% and the “proportion (%) of explants regenerating after 3 weeks, Experiment number 2” value ([4]; 7.5 mM) was 5%. The “proportion (%) of explants regenerating after 3 weeks, Experiment number 3” value ([4]; 7.5 mM) was 5%, the “proportion (%) … after 3 weeks, Average” value ([4]; 10 mM) was 0% and the “proportion (%) of explants regenerating after 3 weeks, Experiment number 1” value ([4]; 10 mM) was 0%. The “proportion (%) of explants regenerating after 3 weeks, Experiment number 2” value ([4]; 10 mM) was 0%, the “proportion (%) of explants regenerating after 3 weeks, Experiment number 3” value ([4]; 10 mM) was 0% and the “proportion (%) … after 3 weeks, Average” value ([4]; 30 mM) was 0%. For the same compound, the “proportion (%) of explants regenerating after 3 weeks, Experiment number 1” value ([4]; 30 mM) was 0%, the “proportion (%) of explants regenerating after 3 weeks, Experiment number 2” value ([4]; 30 mM) was 0% and the “proportion (%) of explants regenerating after 3 weeks, Experiment number 3” value ([4]; 30 mM) was 0%. For the same compound, the “levels that reduced the regeneration and germination of wheat plants” value ([4]; regeneration and germination (Tables 4 and 5)) was “greater than 7.5 mM”.
